From BindingDB's records for doi:10.1016/j.bmcl.2008.04.069 (Bristol-Myers Squibb, 2008)
pIC50: −log10 of the molar value.

Target: T1, 11-beta-hydroxysteroid dehydrogenase 1 [23-292,A23S,F278E] (Homo sapiens, UniProt P28845, A23S/F278E)
T1 construct: 23-292
Test: Scintillation Proximity Assay (SPA)
Conditions: pH 6.5; 23 °C
Protocol: 11beta-HSD1 microsomes isolated from HEK 293 cells over-expressing human 11beta-HSD1 were incubated with the substrate cortisone and cofactor NADPH at room temperature. The reactions were terminated with the addition of a nonspecific 11beta-HSD1 inhibitor (18beta-glycyrrhetinic acid). The product cortisol was quantified in an immuno-competition SPA wherein the [3H]-cortisol bound to anti-rabbit antibody Yitrium silicate SPA beads coated with polyclonal anti-cortisol antibody was competed by cortisol produced in the reaction, and the reaction mixture was read in a scintillation plate reader (TopCount). The amount of cortisol was determined from a cortisol standard curve.

T1 sequence (P28845 as listed by the source A23S/F278E): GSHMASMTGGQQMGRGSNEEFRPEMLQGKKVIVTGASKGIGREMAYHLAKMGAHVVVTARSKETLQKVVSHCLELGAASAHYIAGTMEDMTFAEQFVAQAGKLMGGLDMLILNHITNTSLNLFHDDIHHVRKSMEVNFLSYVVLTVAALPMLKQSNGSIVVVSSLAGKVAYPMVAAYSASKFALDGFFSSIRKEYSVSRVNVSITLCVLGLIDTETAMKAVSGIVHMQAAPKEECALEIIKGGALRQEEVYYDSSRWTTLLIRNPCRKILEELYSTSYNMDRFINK

O=C(c1cncc(CS(=O)(=O)c2c(Cl)cccc2Cl)c1)N1CCOCC1 [pyridine amide, 26]
pIC50: < 5.00
